Data: PMC12706778, “Humanization of Drug Metabolism in the Plasmodium berghei Mouse Model for Antimalarial Drug Discovery” (ACS Infectious Diseases, 2025)
Each block holds one compound with its values, some of them ahead of it.

Experiments:
[1] = Intrinsic clearance with human hepatic microsomes; assay type: in vitro ADME; conditions: for metabolism with hepatic microsomes (in words): stated for hepatic microsomes from human, 8HUM and WT mice together
Experimental: (§1) Microsomes from 8HUM were prepared as described previously. Compounds were added at 0.5 μM (metabolic stability) or 5 μM (metabolite profiling) to microsomes in buffer (0.5 mg/mL protein in 50 mM potassium phosphate, pH 7.4), and reactions were initiated with the addition of excess NADPH (final concentration 0.8 mg/mL). Aliquots (50 μL) were taken immediately and at 3, 6, 9, 15, and 30 min, mixed with two volumes of acetonitrile containing internal standard (donepezil, 50 ng/mL), and kept on ice. After all samples were collected, 250 μL of 20% acetonitrile was added to each sample and samples were then centrifuged for 10 min at 3000g at ambient temperature. LC–MS/MS analysis was carried out immediately.
(§2) Microsomal incubation samples were analyzed on an Acquity UPLC system coupled to a Xevo TQS-Micro, operated using MassLynx software version 4.2 (Waters, Wilmslow, UK). […] The mass spectrometer was operated with electrospray ionization in positive mode, with a capillary voltage of 0.8 kV, a desolvation temperature of 500 °C (in vitro samples) or 600 °C (PK samples), a desolvation gas flow at 1000 L/h, a cone gas flow at 150 L/h, and a source temperature at 150 °C. Multiple reaction monitoring transitions, cone voltages, and collision energies were optimized for each compound using QuanOptimise software.
(§3) Raw LC–MS/MS data were exported to XLfit (IDBS, Woking, UK) for calculation of the exponential decay rate constant (k) from the ratio of the peak area of the test compound to the internal standard at each time point. Intrinsic clearance (CLint) was calculated by multiplying k by the incubation volume and […]. […] Lower and upper limits of quantitation were 0.011 and 0.1 mL/min/mg, respectively. Values were transferred to RStudio (Posit, Boston, MA, USA) for visualization using the ggplot2 package.

[2] = Intrinsic clearance with 8HUM mouse hepatic microsomes; assay type: in vitro ADME
Experimental: as §1
(§4) Microsomal incubation samples were analyzed on an Acquity UPLC system coupled to a Xevo TQS-Micro, operated using MassLynx software version 4.2 (Waters, Wilmslow, UK). […]
as §3, with “Values were transferred to RStudio (Posit, Boston, MA, USA) for visualization using the ggplot2 package.” left out

[3] = Intrinsic clearance with WT mouse hepatic microsomes; assay type: in vitro ADME; conditions: WT mouse microsomes versus human or 8HUM
Experimental: as §1, §4
as §3, with “Values were transferred to RStudio (Posit, Boston, MA, USA) for visualization using the ggplot2 package.” left out

[4] = Oral pharmacokinetics in whole blood of WT mice; assay type: in vivo; conditions: female, mouse; for Tmax: WT, po; for blood plasma ratio: WT mice, blood and plasma samples from same animals at identical timepoints, read-out: B/P (blood-to-plasma ratio)
Experimental: (§5) Three female mice were used in each pharmacokinetic experiment. Dose levels and schedules were as described in the text. All compounds were administered as fine suspensions in a vehicle of 1% methylcellulose and 0.5% Tween80 in water at a dose volume of 5 mL/kg. Serial blood samples (10 μL) were taken from the tail vein at the time points shown, diluted into 9 volumes of Milli-Q water, and stored at −20 °C prior to bioanalysis. PK parameters were determined by noncompartmental analysis using the Phoenix WinNonlin version 8.3.1.5014 (Certara).
as §2
(§6) On the day of sample analysis, calibration standards (CSs) and quality controls (QCs) were prepared from separate compound aliquots. Compounds were dissolved in DMSO and spiked into diluted blank blood as a control matrix, prior to extraction with three volumes of acetonitrile containing the internal standard (donepezil at 5 ng/mL), in parallel with PK samples. Concentration of the drug in samples was determined by interpolation onto CS values using TargetLynx (Waters). Acceptance criteria of the bioanalytical method included a CS accuracy of ±20% of nominal (theoretical) concentration across the range of interest. […] QCs at low-, medium-, and high- concentration levels were injected throughout the analytical run, with an acceptance criterion of 66% of injected samples being within ±20% of nominal concentrations. […] Sample carryover was determined in a blank injection immediately following the injection of the top CS. Carryover was deemed accepted when the test compound response in the blank was <1% of that in the top calibration sample.

[5] = Oral pharmacokinetics in whole blood of 8HUM mice; assay type: in vivo, mouse; conditions: for Tmax / blood plasma ratio: female, mouse; for Tmax: 8HUM, po; for blood plasma ratio: blood and plasma samples from same animals at identical timepoints, read-out: B/P (blood-to-plasma ratio); for AUCinf higher in 8HUM than in WT mice: oral dose, 8HUM versus WT
Experimental: as §5, §2, §6

Plasmodium berghei = test: Short course P. berghei infection efficacy in 8HUM mice; assay type: in vivo, Plasmodium berghei ANKA in 8HUM mice; conditions: 8HUM infected with 0.3 × 10^6 P. berghei infected erythrocytes; single dose 7 mg/kg 24 h after infection; untreated approximately 10% after 5 days; n = 3
Experimental: Donor mice (CD-1) were intraperitoneally administered a solution containing cryopreserved erythrocytes infected with P. berghei ANKA (200 μL at approximately 4% parasitemia). […] Piperaquine (Sigma, C7874) was administered at 7 mg/kg in aqueous vehicle containing 1% (w/v) methylcellulose and 0.5% (w/v) Tween 80. Peripheral blood samples were collected daily, and parasitemia was determined as described.

[6] = chloroquine and primaquine 5 mg/kg, quinine 20 mg/kg

metabolism by human liver microsomes (in words) [1]: rapidly metabolized
stability in 8HUM microsomes compared with human [2]: much more stable
SMILES: CCN(CC)Cc1cc(Nc2ccnc3cc(Cl)ccc23)ccc1O [Amodiaquine, amodiaquine]

metabolism by human liver microsomes (in words) [1]: rapidly metabolized
SMILES: CO[C@H]1O[C@@H]2O[C@@]3(C)CC[C@H]4[C@H](C)CC[C@@H]([C@H]1C)[C@@]24OO3 [Artemether, artemether]

metabolism by human liver microsomes (in words) [1]: rapidly metabolized
SMILES: C[C@H]1[C@H](OC(=O)CCC(=O)O)O[C@@H]2O[C@@]3(C)CC[C@H]4[C@H](C)CC[C@@H]1[C@@]24OO3 [Artesunate, artesunate]

metabolism with hepatic microsomes (in words) [1]: Very little metabolism
SMILES: O=C1C(O)=C([C@H]2CC[C@H](c3ccc(Cl)cc3)CC2)C(=O)c2ccccc21 [Atovaquone, atovaquone]

stability with WT microsomes compared with human or 8HUM microsomes [3]: less stable
Tmax ([4]; in vivo): 2 h
blood plasma ratio ([4]; in vivo): 3.03 ± 0.38
Tmax ([5]; in vivo): 3 ± 2.6 h
blood plasma ratio ([5]; in vivo, 8HUM mice): 3.88 ± 1.64
AUCinf higher in 8HUM than in WT mice [5, 6]: 2.8 fold
SMILES: CCN(CC)CCCC(C)Nc1ccnc2cc(Cl)ccc12 (centres unmarked) [Chloroquine, chloroquine]

metabolism with hepatic microsomes (in words) [1]: Very little metabolism
SMILES: C[C@H]1c2cccc(O)c2C(=O)C2=C(O)[C@]3(O)C(=O)C(C(N)=O)=C(O)[C@@H](N(C)C)[C@@H]3[C@@H](O)[C@@H]21 [Doxycycline, doxycycline]

metabolism with hepatic microsomes (in words) [1]: Very little metabolism
Tmax ([4]; whole blood): 4.7 ± 1.2 h
blood plasma ratio ([4]; whole blood and plasma, oral): 1.44 ± 0.07
Tmax ([5]; whole blood): 7.3 ± 1.2 h
blood plasma ratio ([5]; whole blood and plasma, oral, 8HUM mice): 1.41 ± 0.16
SMILES: OC(c1cc(C(F)(F)F)nc2c(C(F)(F)F)cccc12)C1CCCCN1 (centres unmarked) [Mefloquine, mefloquine]

stability with WT microsomes compared with human or 8HUM microsomes [3]: less stable
Tmax ([4]; in vivo): 0.6 ± 0.2 h
blood plasma ratio ([4]; in vivo): 1.05 ± 0.19
C max ([5]; 8HUM mice, whole blood, PO, chloroquine and primaquine 5 mg/kg, quinine 20 mg/kg, n = 3): 534 ± 37 ng/mL
Tmax ([5]; in vivo): 0.8 ± 0.2 h
blood plasma ratio ([5]; in vivo, 8HUM mice): 1.01 ± 0.03
AUCinf higher in 8HUM than in WT mice [5, 6]: 22 fold
SMILES: COc1cc(NC(C)CCCN)c2ncccc2c1 (centres unmarked) [Primaquine, primaquine]

metabolism with hepatic microsomes (in words) [1]: Very little metabolism
SMILES: [H]/N=C(\N/C(=N/[H])Nc1ccc(Cl)cc1)NC(C)C [Proguanil, proguanil]

metabolism with hepatic microsomes (in words) [1]: Very little metabolism
SMILES: CCc1nc(N)nc(N)c1-c1ccc(Cl)cc1 [Pyrimethamine, pyrimethamine]

Tmax ([4]; whole blood): 0.3 ± 0.1 h
Tmax ([5]; whole blood): 10.7 ± 11.7 h
SMILES: C=C[C@H]1C[N@@]2CC[C@H]1C[C@H]2[C@H](O)c1ccnc2ccc(OC)cc12 [Quinine, quinine]

SMILES: Clc1ccc2c(N3CCN(CCCN4CCN(c5ccnc6cc(Cl)ccc56)CC4)CC3)ccnc2c1 [piperaquine]
parasitemia after treatment (Plasmodium berghei): almost undetectable levels
